# Source: patent publication US11235976B2, “Nanocarbon-iron composite system as well as composition, preparation method and use thereof” (Chongqing Lummy Pharmaceutical Co., LTD, priority 2017, dated 2022)
# Experiments:
# [1] = tested on: SKOV3 ovarian cancer cells; experiment: Cell experiment, cell survival rate; type: cell-based; settings: iron preparation alone 13.65 μg/mL, 48 h
# Procedure: (§1) Cells growing in a log phase are collected, the concentration of the cell suspension is adjusted, 100 μL of cell suspension is added to each well and the cells are plated (edge wells are filled with sterile PBS) at a density of 1×10^3-10^4 cells/well. The cells are incubated for 24 hours at 37° C. under the condition of 5% CO2, a nanocarbon-iron solution having a concentration gradient (nanocarbon content: 125, 62.5, 15.63 and 3.91 μg/mL; and ferric ion content: 13.65, 6.83, 1.71 and 0.43 μg/mL) is added, and three sub-wells are set. Then the cells are incubated for 48 hours at 37° C. under the condition of 5% CO2. 10 μL of CCK8 solution is added to each well and then the cells are continuously incubated for 2 hours. The absorbance of each well is measured at OD=450 nm with the microplate reader. In addition, a negative control group, nanocarbon control groups having the same concentration and iron preparation control groups having the same concentration are set.
# as §1, with “and 1” for “100”, “of a 6-well plate” for “and the cells are plated (edge wells are filled with sterile PBS)”, “3×10^4” for “1×10^3-10^4”, “1.71,” for “1.71 and”, “The” for “10 μL of CCK8 solution is added to each well and then the”, “trypsinized and counted.” for “continuously incubated for 2 hours. The absorbance of each well is measured at OD=450 nm with the microplate reader.”
# [2] = tested on: SMMC7721 liver cancer cells; experiment: Cell experiment, cell survival rate; type: cell-based; settings: SMMC-7721, 48 h
# Procedure: as §1
# as §1, with “and 1” for “100”, “of a 6-well plate” for “and the cells are plated (edge wells are filled with sterile PBS)”, “3×10^4” for “1×10^3-10^4”, “1.71,” for “1.71 and”, “The” for “10 μL of CCK8 solution is added to each well and then the”, “trypsinized and counted.” for “continuously incubated for 2 hours. The absorbance of each well is measured at OD=450 nm with the microplate reader.”
# [3] = tested on: TPC-1 thyroid cancer cells; experiment: Cell experiment, cell survival rate; type: cell-based; settings: 48 h
# Procedure: as §1
# as §1, with “and 1” for “100”, “of a 6-well plate” for “and the cells are plated (edge wells are filled with sterile PBS)”, “3×10^4” for “1×10^3-10^4”, “1.71,” for “1.71 and”, “The” for “10 μL of CCK8 solution is added to each well and then the”, “trypsinized and counted.” for “continuously incubated for 2 hours. The absorbance of each well is measured at OD=450 nm with the microplate reader.”
# [4] = tested on: murine liver cancer H22 cells; experiment: Cell experiment, cell survival rate; type: cell-based; settings: 48 h
# Procedure: as §1
# as §1, with “and 1” for “100”, “of a 6-well plate” for “and the cells are plated (edge wells are filled with sterile PBS)”, “3×10^4” for “1×10^3-10^4”, “1.71,” for “1.71 and”, “The” for “10 μL of CCK8 solution is added to each well and then the”, “trypsinized and counted.” for “continuously incubated for 2 hours. The absorbance of each well is measured at OD=450 nm with the microplate reader.”
# [5] = tested on: subcutaneous transplantation tumors of 9 types of cancer cells; experiment: Tumor growth inhibition experiments, subcutaneous transplantation tumors; type: in vivo, mice; settings: FIGS. 4-39
# Procedure: Cells growing in a log phase are collected, the concentration of the cell suspension is adjusted to 3×10^7 cells/mL, and the cell suspension is inoculated subcutaneously into the right upper extremities of nude mice at the inoculation dosage of 0.1 mL (about 3×10^6 cells) per mouse. When the average tumor volume of the inoculated mice reaches 100 mm^3, the tumor-bearing mice are randomly divided into the following groups (8 nude mice per group): a negative control group (0.9% sodium chloride injection), a nanocarbon control group, an iron preparation control group, a nanocarbon-iron suspension experimental group, and a cis-platinum control group (intraperitoneal injection at the dosage of 5 mg/kg). The above various drugs are injected into the tumors. The tumor volume changes are recorded, and the formula for calculating the volume is Volume=(length×the square of width)/2.
# Milky white and thick ascites is extracted from the H22 tumor-bearing mice, the concentration of the cell suspension is adjusted to be 3×10^7 cells/mL, 0.1 mL of cell suspension (about 3×10^6 cells) is inoculated subcutaneously into the right upper extremity of each of Kunming mice. When the average tumor volume of the inoculated mice reaches 100 mm^3, the tumor-bearing mice are randomly divided into the following groups (8 mice per group): a negative control group (0.9% sodium chloride injection), a nanocarbon control group, an iron preparation control group, a nanocarbon-iron suspension experimental group, and a cis-platinum control group (intraperitoneal injection at the dosage of 5 mg/kg). The above various drugs are injected into the tumors. The tumor volume changes are recorded, and the formula for calculating the volume is Volume=(length×the square of width)/2.
# [6] = tested on: H22 metastatic lymph nodes; experiment: Lymph node metastasis inhibition experiment; type: in vivo, Kunming mouse; settings: popliteal lymph nodes
# Procedure: (§2) Milky white and thick ascites is extracted from the H22 tumor-bearing mice, the concentration is adjusted to be 3×10^7 cells/mL, 0.05 mL of cell suspension (about 1.5×10^6 cells) is inoculated subcutaneously into the left hind foot pads of each Kunming mouse, and thus a lymph node metastasis mouse model is obtained. The mice are treated when the diameter of the tumor reaches 6-8 mm and there is no ulcer and necrosis. The mice are randomly divided into four groups (10 mice per group): a negative control group (0.9% sodium chloride injection), a nanocarbon control group, an iron preparation control group and a nanocarbon-iron suspension experimental group. 10 days after inoculation, the mice are killed, and popliteal lymph nodes are collected, weighed and fixed for pathological examination.
# [7] = tested on: A549 metastatic lymph nodes; experiment: Lymph node metastasis inhibition experiment; type: in vivo, nude mouse; settings: popliteal lymph nodes
# Procedure: as §2, with “Cells growing in a log phase are collected,” for “Milky white and thick ascites is extracted from the H22 tumor-bearing mice,”, “concentration of the cell suspension” for “concentration”, “to” for “to be”, “the” for “0.05 mL of”, “suspension” for “suspension (about 1.5×10^6 cells)”, “nude mouse at the inoculation volume of 0.05 mL (about 1.5×10^6 cells)” for “Kunming mouse,”
# [8] = tested on: HCT116 metastatic lymph nodes; experiment: Lymph node metastasis inhibition experiment; type: in vivo, nude mouse; settings: popliteal lymph nodes
# Procedure: as §2, with “Cells growing in a log phase are collected,” for “Milky white and thick ascites is extracted from the H22 tumor-bearing mice,”, “concentration of the cell suspension” for “concentration”, “to” for “to be”, “the” for “0.05 mL of”, “suspension” for “suspension (about 1.5×10^6 cells)”, “nude mouse at the inoculation volume of 0.05 mL (about 1.5×10^6 cells)” for “Kunming mouse,”
# [9] = tested on: Hela metastatic lymph nodes; experiment: Lymph node metastasis inhibition experiment; type: in vivo, nude mouse; settings: popliteal lymph nodes
# Procedure: as §2, with “Cells growing in a log phase are collected,” for “Milky white and thick ascites is extracted from the H22 tumor-bearing mice,”, “concentration of the cell suspension” for “concentration”, “to” for “to be”, “the” for “0.05 mL of”, “suspension” for “suspension (about 1.5×10^6 cells)”, “nude mouse at the inoculation volume of 0.05 mL (about 1.5×10^6 cells)” for “Kunming mouse,”
# [10] = tested on: MDA-MB-231 metastatic lymph nodes; experiment: Lymph node metastasis inhibition experiment; type: in vivo, nude mouse; settings: popliteal lymph nodes
# Procedure: as §2, with “Cells growing in a log phase are collected,” for “Milky white and thick ascites is extracted from the H22 tumor-bearing mice,”, “concentration of the cell suspension” for “concentration”, “to” for “to be”, “the” for “0.05 mL of”, “suspension” for “suspension (about 1.5×10^6 cells)”, “nude mouse at the inoculation volume of 0.05 mL (about 1.5×10^6 cells)” for “Kunming mouse,”
# [11] = tested on: SGC-7901 metastatic lymph nodes; experiment: Lymph node metastasis inhibition experiment; type: in vivo, nude mouse; settings: popliteal lymph nodes
# Procedure: as §2, with “Cells growing in a log phase are collected,” for “Milky white and thick ascites is extracted from the H22 tumor-bearing mice,”, “concentration of the cell suspension” for “concentration”, “to” for “to be”, “the” for “0.05 mL of”, “suspension” for “suspension (about 1.5×10^6 cells)”, “nude mouse at the inoculation volume of 0.05 mL (about 1.5×10^6 cells)” for “Kunming mouse,”
# [12] = tested on: SKOV3 metastatic lymph nodes; experiment: Lymph node metastasis inhibition experiment; type: in vivo, nude mouse; settings: popliteal lymph nodes
# Procedure: as §2, with “Cells growing in a log phase are collected,” for “Milky white and thick ascites is extracted from the H22 tumor-bearing mice,”, “concentration of the cell suspension” for “concentration”, “to” for “to be”, “the” for “0.05 mL of”, “suspension” for “suspension (about 1.5×10^6 cells)”, “nude mouse at the inoculation volume of 0.05 mL (about 1.5×10^6 cells)” for “Kunming mouse,”
# [13] = tested on: SMMC-7721 metastatic lymph nodes; experiment: Lymph node metastasis inhibition experiment; type: in vivo, nude mouse; settings: popliteal lymph nodes
# Procedure: as §2, with “Cells growing in a log phase are collected,” for “Milky white and thick ascites is extracted from the H22 tumor-bearing mice,”, “concentration of the cell suspension” for “concentration”, “to” for “to be”, “the” for “0.05 mL of”, “suspension” for “suspension (about 1.5×10^6 cells)”, “nude mouse at the inoculation volume of 0.05 mL (about 1.5×10^6 cells)” for “Kunming mouse,”
# [14] = tested on: TPC-1 metastatic lymph nodes; experiment: Lymph node metastasis inhibition experiment; type: in vivo, nude mouse; settings: popliteal lymph nodes
# Procedure: as §2, with “Cells growing in a log phase are collected,” for “Milky white and thick ascites is extracted from the H22 tumor-bearing mice,”, “concentration of the cell suspension” for “concentration”, “to” for “to be”, “the” for “0.05 mL of”, “suspension” for “suspension (about 1.5×10^6 cells)”, “nude mouse at the inoculation volume of 0.05 mL (about 1.5×10^6 cells)” for “Kunming mouse,”
# [15] = tested on: lymph node metastasis of 9 types of tumor cells; experiment: Lymph node metastasis inhibition experiment, summary; type: in vivo, mice
# Procedure: as §2, with “Cells growing in a log phase are collected,” for “Milky white and thick ascites is extracted from the H22 tumor-bearing mice,”, “concentration of the cell suspension” for “concentration”, “to” for “to be”, “the” for “0.05 mL of”, “suspension” for “suspension (about 1.5×10^6 cells)”, “nude mouse at the inoculation volume of 0.05 mL (about 1.5×10^6 cells)” for “Kunming mouse,”
# as §2
# [16] = iron preparation alone 0.43 μg/mL
# [17] = iron preparation alone 1.71 μg/mL
# [18] = iron preparation alone 6.83 μg/mL
# [19] = iron preparation alone 13.65 μg/mL
substance,measurement,setting,value
ferrous sulfate,Cell Survival Rate,[1],96.47%
same,Cell Survival Rate,[2]; [16],100%
same,Cell Survival Rate,[2]; [17],100%
same,Cell Survival Rate,[2]; [18],100%
same,Cell Survival Rate,[2]; [19],97.46%
same,Cell Survival Rate,[3]; [16],100%
same,Cell Survival Rate,[3]; [17],100%
same,Cell Survival Rate,[3]; [18],98.75%
same,Cell Survival Rate,[3]; [19],93.64%
same,Cell Survival Rate,[4]; [16],100%
same,Cell Survival Rate,[4]; [17],95.24%
same,Cell Survival Rate,[4]; [18],97.16%
same,Cell Survival Rate,[4]; [19],100%
same,inhibition effect on growth of 9 types of tumors,[5],do not have an inhibition effect
same,Weight of Lymph Node,[6],44.27 ± 20.69 mg
same,Weight of Lymph Node,[7],44.97 ± 16.53 mg
same,Weight of Lymph Node,[8],48.12 ± 10.58 mg
same,Weight of Lymph Node,[9],29.48 ± 6.46 mg
same,Weight of Lymph Node,[10],40.18 ± 11.14 mg
same,Weight of Lymph Node,[11],50.12 ± 20.94 mg
same,Weight of Lymph Node,[12],35.62 ± 6.94 mg
same,Weight of Lymph Node,[13],50.19 ± 18.73 mg
same,Weight of Lymph Node,[14],35.71 ± 13.45 mg
same,inhibition effect on the metastatic lymph nodes,[15],do not have an inhibition effect
